Key:
[1] = biological target: T1, Salicylate hydroxylase (SHL) (Pseudomonas putida, UniProt P23262); assay: Effect of salicylic acid on the fluorescence intensity (SHL, Compound C, NADH); type: biochemical; conditions: salicylic acid added to SHL, Compound C and NADH, aerobic; fluorescence decreased with increasing concentration
T1 construct: purchased GDS Technology Inc. (USA)
T1 sequence (P23262 1-434): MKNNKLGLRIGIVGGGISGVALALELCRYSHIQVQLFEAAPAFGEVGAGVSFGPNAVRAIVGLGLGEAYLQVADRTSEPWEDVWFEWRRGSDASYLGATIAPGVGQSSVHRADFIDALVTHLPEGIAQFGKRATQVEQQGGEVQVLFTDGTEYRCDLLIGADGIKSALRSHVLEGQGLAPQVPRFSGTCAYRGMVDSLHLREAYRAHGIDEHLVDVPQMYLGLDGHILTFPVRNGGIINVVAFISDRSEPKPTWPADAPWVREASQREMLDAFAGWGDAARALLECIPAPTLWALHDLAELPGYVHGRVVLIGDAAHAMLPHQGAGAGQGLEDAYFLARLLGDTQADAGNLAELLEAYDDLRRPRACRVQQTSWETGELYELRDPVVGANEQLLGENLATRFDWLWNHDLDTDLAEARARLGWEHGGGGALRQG
Protocol: (§1) ^1H NMR and ^13C NMR spectrums were obtained by Bruker AMX-500 spectrophotometer wherein chemical shift values were expressed in ppm relative to tetramethylsilane (δ unit); fluorescence intensity was measured by using a fluorescence-grade quartz cuvette and a spectrofluorometer, i.e. Horiba Jobin Yvon Fluoromax-4. The other chemicals are purchased from Acros, Aldrich, TCI or Sigma Chemical corporations and directly used without purification. […] Chem. Soc. Jp. 1985, 58, 731; the entire contents thereof are incorporated herein by reference. SHL is obtained from GDS Technology Inc. (USA). D-3-hydroxybutyric acid dehydrogenase is purchased from TOYOBO (Product Code: HBD-301). Cholesterol dehydrogenase is purchased from Genzyme Corp. All measurements were performed in 50 mM Tris-HCl (TRIZMA Base, Tris, pH8). The latent fluorophore is synthesized in DMSO and should be added to a Tris-HCl buffer before use to make the concentration of DMSO not exceed 0.1% (v/v).

[2] = cited from earlier work
[3] = biological target: T1, Salicylate hydroxylase (SHL); assay: Fluorescence profile of the latent fluorophore in the presence of SHL and NADH, aerobic; type: biochemical
Protocol: as §1
(§2) The fluorescence profile of Compound C was analyzed in the presence of SHL and NADH in an aerobic environment. […] However, in case that Compound C was kept in a solution containing both 1 unit of SHL and 1 mM NADH at 37 °C, the fluorescence intensity of Compound B increases 57 times in 90 minutes, as shown in FIG. 1 (dotted line representing the baseline).

[4] = Latent fluorophore kept in SHL alone, NADH alone or Tris-HCl buffer (background fluorescence / stability); type: physicochemical; conditions: 20 μM
Protocol: as §1, §2

[5] = system: SHL and 3-hydroxybutyric acid dehydrogenase; assay: Two-enzyme system: SHL and 3-hydroxybutyric acid dehydrogenase; type: biochemical; conditions: Compound C 10 μM; substrate 3-hydroxybutyric acid
Protocol: as §1, with “(v/v). […]” for “(v/v).”
(§3) The measurement of fluorescence was performed at an excitation wavelength λex of 500 nm and an emission wavelength λem of 595 nm. […] The measured fluorescence intensity after subtraction of baseline (concentration of the biochemical molecule to be tested is zero) intensity therefrom was plotted versus the concentration of the biochemical molecule to be tested.

[6] = system: SHL and cholesterol dehydrogenase; assay: Two-enzyme system: SHL and cholesterol dehydrogenase; type: biochemical; conditions: Compound C 10 μM
Protocol: as §1, with “(v/v). […]” for “(v/v).”
as §3

SMILES	conversion of Compound C to a fluorogenic compound [1]	blood level that may be fatal [2]	time until fluorescence could be detected ([3]; 1 unit SHL and 1 mM NADH added to Tris-HCl buffer containing Compound C)	increase of fluorescence intensity ([3]; Compound C in solution with 1 unit SHL and 1 mM NADH, 37 °C, in 90 minutes) [times]	fluorescence intensity, only SHL added ([3]; only SHL added to Tris-HCl buffer containing Compound C, after 10 minutes)	fluorescence intensity, kept in solution of NADH alone ([4]; kept even for several months)	fluorescence intensity, kept in solution of SHL alone ([4]; kept even for several months)	fluorescence intensity, kept in Tris-HCl buffer solution ([4]; pH 8, kept even for several months)	fluorescence intensity after addition of the substrate [5]	fluorescence intensity after addition of the substrate [6]
O=C(O)c1ccccc1O [salicylic acid]	inhibited	above 4.3 mM								
N#Cc1c(-c2nc3ccccc3s2)c(=O)oc2cc(OCc3ccc(C(=O)O)c(O)c3)ccc12 [Compound C]			within several seconds	57	near the baseline	near the baseline	near the baseline	near the baseline	significantly increased	significantly increased

— patent US8691980B2 (National Taipei University of Technology, priority 2011, dated 2014)
